Among the data in patent US20250136578A1 (Kolm Therapeutics Inc., priority 2023, published 2025) are EC50 and IC50 values, retold here.

The target of one assay is AR / CBP ternary complex (Homo sapiens, UniProt P10275+Q92793). In words: Ternary complex formation assay (sandwich ELISA, AR capture, CBP antibody detection) in VCaP cell lysates. Type of assay: cell-based. The method, boiled down:
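Sandwich ELISA: plates were coated with anti-AR antibody (AR441) and given lysates of VCaP cells treated 1.5 h with bifunctional compound in charcoal-stripped serum. Co-captured CBP or p300 was probed with rabbit mAbs and HRP secondary. Chemifluorescent signal (ex 570/em 585) was read at 0, 5 and 15 min.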

In another assay the test system is VCaP cells. In words: VCaP growth inhibition assay (CTG). In kind it is cell-based. Particulars: Homo sapiens, 216 h, 30 pM R1881, 9 days. The method, boiled down: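 Growth was measured by CTG luminescence after a 9-day exposure of VCaP cells to compound (final 10 fM–100 nM, fivefold steps) in the presence of 30 pM final R1881, in phenol red-free DMEM/5% CSS. IC50 values were derived by nonlinear 4-parameter regression of RLU against concentration.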

Where [1] appears, read: treated 1.5 hours, rabbit CBP or p300 antibody detection, average, read-out: Average Ternary Complex.

The structures appear in SMILES notation. Like-named read-outs stand apart in the source and are kept apart here. Some results are limits rather than exact numbers.

Chain of AR / CBP ternary complex (P10275 whole entry): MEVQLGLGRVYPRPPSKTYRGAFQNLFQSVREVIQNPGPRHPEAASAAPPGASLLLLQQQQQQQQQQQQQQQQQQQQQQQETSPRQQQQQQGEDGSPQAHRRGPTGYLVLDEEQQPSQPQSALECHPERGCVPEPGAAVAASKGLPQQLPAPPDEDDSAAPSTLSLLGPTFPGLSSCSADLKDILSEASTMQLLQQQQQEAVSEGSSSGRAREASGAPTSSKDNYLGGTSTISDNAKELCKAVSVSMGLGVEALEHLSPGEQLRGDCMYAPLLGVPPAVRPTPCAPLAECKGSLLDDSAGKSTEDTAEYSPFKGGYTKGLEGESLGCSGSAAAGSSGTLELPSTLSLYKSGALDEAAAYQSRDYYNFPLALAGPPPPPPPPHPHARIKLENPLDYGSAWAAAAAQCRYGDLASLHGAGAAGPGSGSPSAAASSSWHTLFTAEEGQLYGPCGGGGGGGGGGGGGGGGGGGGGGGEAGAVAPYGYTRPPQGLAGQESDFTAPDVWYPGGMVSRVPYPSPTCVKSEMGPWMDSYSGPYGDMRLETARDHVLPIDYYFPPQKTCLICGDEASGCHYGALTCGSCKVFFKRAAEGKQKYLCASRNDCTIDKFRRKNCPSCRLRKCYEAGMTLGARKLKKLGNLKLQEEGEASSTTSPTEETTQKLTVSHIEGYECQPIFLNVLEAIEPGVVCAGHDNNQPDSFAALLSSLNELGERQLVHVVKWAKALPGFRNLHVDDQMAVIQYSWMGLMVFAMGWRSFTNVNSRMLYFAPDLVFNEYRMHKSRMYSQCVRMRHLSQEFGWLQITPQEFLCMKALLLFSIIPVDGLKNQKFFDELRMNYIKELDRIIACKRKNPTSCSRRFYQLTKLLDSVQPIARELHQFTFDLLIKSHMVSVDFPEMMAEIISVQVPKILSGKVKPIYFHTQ
Chain of AR / CBP ternary complex (Q92793 2-2442): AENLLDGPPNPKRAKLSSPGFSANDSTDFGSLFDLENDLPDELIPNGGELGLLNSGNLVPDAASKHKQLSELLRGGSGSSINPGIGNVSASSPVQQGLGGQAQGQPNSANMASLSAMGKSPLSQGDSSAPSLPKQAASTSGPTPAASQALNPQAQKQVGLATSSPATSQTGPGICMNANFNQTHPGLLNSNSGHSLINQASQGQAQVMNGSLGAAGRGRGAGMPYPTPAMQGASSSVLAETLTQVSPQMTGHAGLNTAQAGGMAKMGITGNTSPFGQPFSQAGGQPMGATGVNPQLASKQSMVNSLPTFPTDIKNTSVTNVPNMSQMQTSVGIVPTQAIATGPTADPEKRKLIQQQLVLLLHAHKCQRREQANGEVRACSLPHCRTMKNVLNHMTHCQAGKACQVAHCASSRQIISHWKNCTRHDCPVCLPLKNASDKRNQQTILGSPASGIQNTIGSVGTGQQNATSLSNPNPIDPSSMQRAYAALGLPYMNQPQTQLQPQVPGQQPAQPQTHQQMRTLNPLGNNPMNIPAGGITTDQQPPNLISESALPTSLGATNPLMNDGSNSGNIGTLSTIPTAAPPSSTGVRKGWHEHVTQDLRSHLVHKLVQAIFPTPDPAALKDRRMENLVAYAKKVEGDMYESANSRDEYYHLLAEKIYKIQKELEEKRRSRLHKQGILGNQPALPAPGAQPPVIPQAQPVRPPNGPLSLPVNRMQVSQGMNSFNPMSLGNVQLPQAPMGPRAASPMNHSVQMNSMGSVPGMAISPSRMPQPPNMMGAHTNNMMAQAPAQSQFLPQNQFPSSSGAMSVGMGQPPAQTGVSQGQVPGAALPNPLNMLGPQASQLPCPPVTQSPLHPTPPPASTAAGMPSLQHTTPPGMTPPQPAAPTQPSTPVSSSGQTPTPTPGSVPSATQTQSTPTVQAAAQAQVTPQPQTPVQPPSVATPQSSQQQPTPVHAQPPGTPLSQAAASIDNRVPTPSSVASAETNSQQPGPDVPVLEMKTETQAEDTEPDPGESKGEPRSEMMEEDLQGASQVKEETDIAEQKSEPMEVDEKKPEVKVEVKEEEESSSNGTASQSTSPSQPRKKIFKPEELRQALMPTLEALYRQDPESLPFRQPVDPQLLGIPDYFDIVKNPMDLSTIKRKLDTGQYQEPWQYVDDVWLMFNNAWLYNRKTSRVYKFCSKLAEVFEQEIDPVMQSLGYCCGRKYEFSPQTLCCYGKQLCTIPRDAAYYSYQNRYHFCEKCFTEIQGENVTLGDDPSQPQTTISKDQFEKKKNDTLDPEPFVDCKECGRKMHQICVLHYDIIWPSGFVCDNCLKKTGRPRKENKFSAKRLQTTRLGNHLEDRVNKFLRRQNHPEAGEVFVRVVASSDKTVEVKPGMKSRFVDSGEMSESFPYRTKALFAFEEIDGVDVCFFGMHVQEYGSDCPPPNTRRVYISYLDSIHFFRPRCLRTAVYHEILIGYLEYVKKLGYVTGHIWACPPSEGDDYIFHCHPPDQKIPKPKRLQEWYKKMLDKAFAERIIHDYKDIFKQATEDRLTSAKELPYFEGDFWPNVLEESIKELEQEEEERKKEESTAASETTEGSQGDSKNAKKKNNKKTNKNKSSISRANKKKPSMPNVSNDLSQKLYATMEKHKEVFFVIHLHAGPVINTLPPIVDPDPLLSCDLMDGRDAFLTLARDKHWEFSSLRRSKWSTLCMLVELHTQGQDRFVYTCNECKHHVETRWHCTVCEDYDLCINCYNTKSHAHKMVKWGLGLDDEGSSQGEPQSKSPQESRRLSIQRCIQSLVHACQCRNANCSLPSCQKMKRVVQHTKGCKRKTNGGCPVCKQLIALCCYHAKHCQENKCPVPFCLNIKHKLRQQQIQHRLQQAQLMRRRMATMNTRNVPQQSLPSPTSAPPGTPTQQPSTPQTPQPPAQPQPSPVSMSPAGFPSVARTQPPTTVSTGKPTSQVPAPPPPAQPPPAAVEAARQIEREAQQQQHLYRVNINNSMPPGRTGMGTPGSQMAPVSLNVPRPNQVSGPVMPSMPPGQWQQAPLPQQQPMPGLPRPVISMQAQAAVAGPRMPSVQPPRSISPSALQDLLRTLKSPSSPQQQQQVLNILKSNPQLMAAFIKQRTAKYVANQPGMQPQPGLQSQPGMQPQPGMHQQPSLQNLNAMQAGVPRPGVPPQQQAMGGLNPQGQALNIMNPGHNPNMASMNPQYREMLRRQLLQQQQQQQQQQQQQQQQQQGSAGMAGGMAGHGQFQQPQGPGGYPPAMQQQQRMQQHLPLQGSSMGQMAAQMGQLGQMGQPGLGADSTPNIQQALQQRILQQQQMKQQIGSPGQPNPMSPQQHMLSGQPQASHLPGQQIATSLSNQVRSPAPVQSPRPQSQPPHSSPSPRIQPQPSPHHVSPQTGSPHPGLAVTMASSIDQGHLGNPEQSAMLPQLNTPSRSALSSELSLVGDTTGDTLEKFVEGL

On to `CC(=O)N1CCc2c(c(N3CCCc4cc(-c5cnn(C)c5)c(C(F)F)cc43)nn2[C@H]2CC[C@H](N3CCN(c4ccc(C(=O)N[C@H]5CC[C@H](Oc6ccc(C#N)c(Cl)c6)CC5)nn4)CC3)CC2)C1` [Compound 250, 6-[4-[4-[5-acetyl-3-[7-(difluoromethyl)-6-(1-methylpyrazol-4-yl)-3,4-dihydro-2H-quinolin-1-yl]-6,7-dihydro-4H-pyrazolo[4,3-c]pyridin-1-yl]cyclohexyl]piperazin-1-yl]-N-[4-(3-chloro-4-cyano-phenoxy)cyclohexyl]pyridazine-3-carboxamide], for which the EC50 at AR / CBP ternary complex (setting [1]) was under 1 nM. In the assay with VCaP cells, the half-inhibitory concentration (IC50) was at most 0.1 nM.

With `CC(=O)N1CCc2c(c(N3CCCc4cc(-c5cnn(C)c5)c(C(F)F)cc43)nn2C2CCN(C3(C)CCN(c4ccc(C(=O)N[C@H]5CC[C@H](Oc6ccc(C#N)c(Cl)c6)CC5)nn4)CC3)CC2)C1` [Compound 201, 6-[4-[4-[5-acetyl-3-[7-(difluoromethyl)-6-(1-methylpyrazol-4-yl)-3,4-dihydro-2H-quinolin-1-yl]-6,7-dihydro-4H-pyrazolo[4,3-c]pyridin-1-yl]-1-piperidyl]-4-methyl-1-piperidyl]-N-[4-(3-chloro-4-cyano-phenoxy)cyclohexyl]pyridazine-3-carboxamide], the EC50 on AR / CBP ternary complex (setting [1]) was under 1 nM. The compound also yielded an IC50 in the assay on VCaP cells of at most 0.1 nM.

`CC(=O)N1CCc2c(c(N3CCCc4cc(-c5cnn(C)c5)c(C(F)F)cc43)nn2C2CCN(C[C@H]3[C@H](C)CN(c4ccc(C(=O)N[C@H]5CC[C@H](Oc6ccc(C#N)c(C)c6C)CC5)nn4)C[C@@H]3C)CC2)C1` [Compound 288]: on AR / CBP ternary complex (setting [1]), the EC50 is under 1 nM. The 50% inhibitory concentration (IC50) in the assay on VCaP cells is at most 0.1 nM.

Take `CC(=O)N1CCc2c(c(-c3cccc4cc(C5CC5)ncc34)nn2C2CCN(CC3CCN(c4ccc(C(=O)N[C@H]5CC[C@H](Oc6ccc(C#N)c(Cl)c6)CC5)nn4)CC3)CC2)C1` [Compound 123, 6-[4-[[4-[5-acetyl-3-(3-cyclopropyl-8-isoquinolyl)-6,7-dihydro-4H-pyrazolo[4,3-c]pyridin-1-yl]-1-piperidyl]methyl]-1-piperidyl]-N-[4-(3-chloro-4-cyano-phenoxy)cyclohexyl]pyridazine-3-carboxamide]: on AR / CBP ternary complex (setting [1]), the EC50 was under 1 nM. Also, the IC50 in the assay on VCaP cells fell in the range of 0.1 to 1 nM.

Regarding `CC(=O)N1CCc2c(c(-c3cccc4cc(-c5cnn(CC6CC7(C6)CN(c6ccc(C(=O)N[C@H]8CC[C@H](Oc9ccc(C#N)c(Cl)c9)CC8)nn6)C7)c5)ncc34)nn2C)C1` [Compound 47, 6-[6-[[4-[8-(5-acetyl-1-methyl-6,7-dihydro-4H-pyrazolo[4,3-c]pyridin-3-yl)-3-isoquinolyl]pyrazol-1-yl]methyl]-2-azaspiro[3.3]heptan-2-yl]-N-[4-(3-chloro-4-cyano-phenoxy)cyclohexyl]pyridazine-3-carboxamide], the EC50 at AR / CBP ternary complex (read-out: Average Ternary Complex, treated 1.5 hours, rabbit CBP or p300 antibody detection) is 1 to 10 nM. The compound further displayed an IC50 with VCaP cells of 0.1 to 1 nM.

As to `CC(=O)N1CCc2c(c(N3CCCc4cc(-c5cnn(C)c5)c(C(F)F)cc43)nn2C2CCN(C(=O)C3CCN(c4ccc(C(=O)N[C@H]5CC[C@H](Oc6ccc(C#N)c(Cl)c6)CC5)nn4)CC3)CC2)C1` [Compound 2], on AR / CBP ternary complex (setting [1]), the EC50 is under 1 nM. Also, the IC50 in the assay on VCaP cells is at most 0.1 nM.

Consider `CC(=O)N1CCc2c(c(N3CCCc4cc(C#N)ccc43)nn2C2CCN(C[C@H]3CCN(c4ccc(C(=O)N[C@H]5CC[C@H](Oc6ccc(C#N)c(Cl)c6)CC5)nn4)C[C@@H]3C)CC2)C1` (stereo in doubt) [Compound 105, 6-[4-[[4-[5-acetyl-3-(6-cyano-3,4-dihydro-2H-quinolin-1-yl)-6,7-dihydro-4H-pyrazolo[4,3-c]pyridin-1-yl]-1-piperidyl]methyl]-3-methyl-1-piperidyl]-N-[4-(3-chloro-4-cyano-phenoxy)cyclohexyl]pyridazine-3-carboxamide], for which the EC50 at AR / CBP ternary complex (setting [1]) is under 1 nM. Moreover, the IC50 in the assay with VCaP cells is 0.1 to 1 nM.

As for `CC(=O)N1CCc2c(c(N3CCCc4cc(-c5cnn(C)c5)ncc43)nn2C2CCN(C(=O)C3CCN(c4ccc(C(=O)N[C@H]5CC[C@H](Oc6ccc(C#N)c(Cl)c6)CC5)nn4)CC3)CC2)C1` [Compound 67, 6-[4-[4-[5-acetyl-3-[6-(1-methylpyrazol-4-yl)-3,4-dihydro-2H-1,7-naphthyridin-1-yl]-6,7-dihydro-4H-pyrazolo[4,3-c]pyridin-1-yl]piperidine-1-carbonyl]-1-piperidyl]-N-[4-(3-chloro-4-cyano-phenoxy)cyclohexyl]pyridazine-3-carboxamide], on AR / CBP ternary complex (setting [1]), the EC50 was under 1 nM. This compound also came in with a half-maximal inhibitory concentration (IC50) with VCaP cells of 0.1 to 1 nM.

As for `CC(=O)N1CCc2c(c(-c3cccc4ccncc34)nn2C2CCN(CC3CCN(c4ccc(C(=O)N[C@H]5CC[C@H](Oc6ccc(C#N)c(Cl)c6)CC5)nn4)CC3)CC2)C1` [Compound 120, 6-[4-[[4-[5-acetyl-3-(8-isoquinolyl)-6,7-dihydro-4H-pyrazolo[4,3-c]pyridin-1-yl]-1-piperidyl]methyl]-1-piperidyl]-N-[4-(3-chloro-4-cyano-phenoxy)cyclohexyl]pyridazine-3-carboxamide], the EC50 on AR / CBP ternary complex (setting [1]) is under 1 nM. In addition, the half-maximal inhibitory concentration (IC50) in the assay with VCaP cells lay within 0.1 to 1 nM.

For the compound `Cc1cc2c(N3CCCc4cc(-c5cnn(C)c5)c(C(F)F)cc43)cc(N3CCN(CC4CCN(c5ccc(C(=O)N[C@H]6CC[C@H](Oc7ccc(C#N)c(Cl)c7)CC6)nn5)CC4)CC3)cc2n(C)c1=O` [Compound 135, N-[4-(3-chloro-4-cyano-phenoxy)cyclohexyl]-6-[4-[[4-[5-[7-(difluoromethyl)-6-(1-methylpyrazol-4-yl)-3,4-dihydro-2H-quinolin-1-yl]-1,3-dimethyl-2-oxo-7-quinolyl]piperazin-1-yl]methyl]-1-piperidyl]pyridazine-3-carboxamide], the EC50 at AR / CBP ternary complex (setting [1]) was 1 to 10 nM. Moreover, the IC50 in the assay on VCaP cells lay within 0.1 to 1 nM.

As to `CC(=O)N1CCc2c(c(N3CCCc4cc(C)ncc43)nn2C2CCN(CC3CCN(c4ccc(C(=O)N[C@H]5CC[C@H](Oc6ccc(C#N)c(Cl)c6)CC5)nn4)CC3)CC2)C1` [Compound 107, 6-[4-[[4-[5-acetyl-3-(6-methyl-3,4-dihydro-2H-1,7-naphthyridin-1-yl)-6,7-dihydro-4H-pyrazolo[4,3-c]pyridin-1-yl]-1-piperidyl]methyl]-1-piperidyl]-N-[4-(3-chloro-4-cyano-phenoxy)cyclohexyl]pyridazine-3-carboxamide], the EC50 on AR / CBP ternary complex (setting [1]) is under 1 nM. The same compound returned an IC50 in the assay on VCaP cells of at most 0.1 nM.

Turning to `Cn1c(=O)n(C)c2cc(-c3cccc4cc(-c5ccc(CCC6CCN(c7ccc(C(=O)N[C@H]8CC[C@H](Oc9ccc(C#N)c(Cl)c9)CC8)nn7)CC6)nc5)ncc34)ccc21` [Compound 52, N-[4-(3-chloro-4-cyano-phenoxy)cyclohexyl]-6-[4-[2-[5-[8-(1,3-dimethyl-2-oxo-benzimidazol-5-yl)-3-isoquinolyl]-2-pyridyl]ethyl]-1-piperidyl]pyridazine-3-carboxamide], on AR / CBP ternary complex (setting [1]), the EC50 was in the range of 1 to 10 nM. In addition, the IC50 in the assay on VCaP cells is over 100 nM.

As to `CC(=O)N1CCc2c(c(N3CCCc4cc(-c5nccs5)c(C(F)F)cc43)nn2C2CCN(CC3CCN(c4ccc(C(=O)N[C@H]5CC[C@H](Oc6ccc(C#N)c(Cl)c6)CC5)nn4)CC3)CC2)C1` [Compound 255, 6-[4-[[4-[5-acetyl-3-[7-(difluoromethyl)-6-thiazol-2-yl-3,4-dihydro-2H-quinolin-1-yl]-6,7-dihydro-4H-pyrazolo[4,3-c]pyridin-1-yl]-1-piperidyl]methyl]-1-piperidyl]-N-[4-(3-chloro-4-cyano-phenoxy)cyclohexyl]pyridazine-3-carboxamide], at AR / CBP ternary complex (setting [1]), the EC50 is under 1 nM. The compound also registered an IC50 in the assay on VCaP cells of 0.1 to 1 nM.

As to `CC(=O)N1CCc2c(c(N3CCCc4cc(-c5cnn(C)c5)c(C(F)F)cc43)nn2C2CCN(C(=O)C3CCN(c4ccc(C(=O)N[C@H]5CC[C@H](Oc6ccc(C#N)c(Cl)c6)CC5)cc4)CC3)CC2)C1` [Compound 159, 4-[4-[4-[5-acetyl-3-[7-(difluoromethyl)-6-(1-methylpyrazol-4-yl)-3,4-dihydro-2H-quinolin-1-yl]-6,7-dihydro-4H-pyrazolo[4,3-c]pyridin-1-yl]piperidine-1-carbonyl]-1-piperidyl]-N-[4-(3-chloro-4-cyano-phenoxy)cyclohexyl]benzamide], the EC50 at AR / CBP ternary complex (setting [1]) is under 1 nM. The compound further had an IC50 with VCaP cells of at most 0.1 nM.

As for `CC(=O)N1CCc2c(c(N3CCCc4cc(-c5cnn(C)c5)c(C(F)F)cc43)nn2[C@H]2CC[C@]3(CCN(C4CN(c5ccc(C(=O)N[C@H]6CC[C@H](Oc7ccc(C#N)c(Cl)c7)CC6)nn5)C4)C3)CC2)C1` [Compound 262, 6-[3-[8-[5-acetyl-3-[7-(difluoromethyl)-6-(1-methylpyrazol-4-yl)-3,4-dihydro-2H-quinolin-1-yl]-6,7-dihydro-4H-pyrazolo[4,3-c]pyridin-1-yl]-2-azaspiro[4.5]decan-2-yl]azetidin-1-yl]-N-[4-(3-chloro-4-cyano-phenoxy)cyclohexyl]pyridazine-3-carboxamide], the EC50 at AR / CBP ternary complex (setting [1]) is under 1 nM. In the assay with VCaP cells, this compound yielded a concentration for half-maximal inhibition (IC50) of 0.1 to 1 nM.

For `CC(=O)N1CCc2c(c(N3CCCc4cc(-c5cnn(C)c5)c(C(F)F)cc43)nn2C2CCN(CC3CCN(c4ccc(C(=O)N[C@H]5CC[C@H](Oc6ccc(C#N)c(Cl)c6)CC5)cn4)CC3)CC2)C1` [Compound 18, 6-[4-[[4-[5-acetyl-3-[7-(difluoromethyl)-6-(1-methylpyrazol-4-yl)-3,4-dihydro-2H-quinolin-1-yl]-6,7-dihydro-4H-pyrazolo[4,3-c]pyridin-1-yl]-1-piperidyl]methyl]-1-piperidyl]-N-[4-(3-chloro-4-cyano-phenoxy)cyclohexyl]pyridine-3-carboxamide], the EC50 at AR / CBP ternary complex (setting [1]) is under 1 nM. The compound further yielded an IC50 in the assay on VCaP cells of at most 0.1 nM.
